Broadly, the IC50 is the concentration that inhibits the measured activity by half.

Structures are written as SMILES.

Our source for the IC50 values is patent US11976083B2, “Inhibitors of peptidylarginine deiminases” (Gilead Sciences, Inc., priority 2020, dated 2024).

For this test, the target named is T1, human PAD4 (Homo sapiens, UniProt Q9UM07).
T1 construct: human PAD4 (NM_012387), A2-P663, was PCR amplified; His-SUMO (N, cleaved yes); made in house; host or cells: E. coli BL21(DE3)
Nature of the test: In vitro PAD4 BAEE biochemical assay. The note with it: BAEE substrate 3 mM, 5 nM PAD4, 2 mM calcium chloride; geometric mean of multiple experiments. In short, it runs like this: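 Ammonia produced by BAEE deimination (3 mM substrate, 2 h, 25 °C) was read as fluorescent isoindole after o-phthalaldehyde/DTT derivatization, ex 405 nm/em 535 nm. Human PAD4 at 5 nM final, 2 mM calcium, pH 7.6 MOPS; compound preincubated 30 min. IC50s, normalized to BB-Cl-Amidine and DMSO controls, were geometric-mean averaged.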

T1 sequence (Q9UM07 2-663): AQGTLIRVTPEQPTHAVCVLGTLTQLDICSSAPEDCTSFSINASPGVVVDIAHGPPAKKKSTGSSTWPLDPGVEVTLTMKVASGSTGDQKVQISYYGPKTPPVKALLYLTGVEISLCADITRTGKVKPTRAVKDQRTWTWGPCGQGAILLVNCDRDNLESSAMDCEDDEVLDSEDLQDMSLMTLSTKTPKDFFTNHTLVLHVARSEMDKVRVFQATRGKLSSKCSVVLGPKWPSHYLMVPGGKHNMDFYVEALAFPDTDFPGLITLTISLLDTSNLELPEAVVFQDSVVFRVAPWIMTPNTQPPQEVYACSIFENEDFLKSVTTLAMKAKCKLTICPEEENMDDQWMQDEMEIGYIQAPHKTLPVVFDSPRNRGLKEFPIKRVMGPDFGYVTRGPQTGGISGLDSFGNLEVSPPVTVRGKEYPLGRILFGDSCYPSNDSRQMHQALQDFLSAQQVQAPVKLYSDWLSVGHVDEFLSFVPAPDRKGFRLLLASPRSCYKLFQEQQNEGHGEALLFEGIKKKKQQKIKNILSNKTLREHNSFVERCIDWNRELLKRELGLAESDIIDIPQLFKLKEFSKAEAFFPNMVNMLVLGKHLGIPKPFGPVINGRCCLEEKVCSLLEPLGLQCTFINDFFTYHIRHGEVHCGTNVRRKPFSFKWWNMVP

Take `COc1cccc2c1C(=O)N[C@H](C)c1ccc3cc(-c4nc5cc(C(=O)N6CC[C@@H](OC)[C@@H](N)C6)cc(OC)c5n4C)n(c3n1)CCCCC2` [Example 854, (2~{R})-17-[5-[(3~{S},4~{R})-3-amino-4-methoxy-piperidine-1-carbonyl]-7-methoxy-1-methyl-benzimidazol-2-yl]-6-methoxy-2-methyl-3,16,22-triazatetracyclo[14.5.2.0^ {5,10}.0^{19,23}]tricosa-1(22),5(10),6,8,17,19(23),20-heptaen-4-one]: the IC50 was 68 nM.

`COc1cc(C(=O)N2C[C@H](N)[C@@H]3CC[C@H]2C3)cc2nc(-c3cc4ccc5nc4n3CCCCCc3ccccc3C(=O)N[C@@H]5C)n(C)c12` [Example 439, (2˜{R})-17-[5-[(1˜{S},4˜{R},5˜{R})-4-amino-2-azabicyclo[3.2.1]octane-2-carbonyl]-7-methoxy-1-methyl-benzimidazol-2-yl]-2-methyl-3,16,22-triazatetracyclo[14.5.2.0^{5,10}.0^{19,23}]tricosa-1(22),5(10),6,8,17,19(23),20-heptaen-4-one]: the IC50 amounted to 32 nM.

In the case of `C[C@H]1NC(=O)c2ccc(Cl)nc2CCCCCn2c(-c3nc4cc(C(=O)N5C[C@H](N)[C@@H]6CC[C@H]5C6)cc(F)c4n3CC(C)(C)C)cc3ccc1nc32` [Example 947, (2~{R})-17-[5-[(1~{S},4~ {R},5~{R})-4-amino-2-azabicyclo[3.2.1]octane-2-carbonyl]-1-(2,2-dimethylpropyl)-7-fluoro-benzimidazol-2-yl]-8-chloro-2-methyl-3,9,16,22-tetrazatetracyclo [14.5.2.0^{5,10}.0^{19,23}] tricosa-1(22),5(10),6,8,17, 19(23),20-heptaen-4-one], the IC50 amounted to 92 nM.

As to `C[C@H]1NC(=O)C2C[C@H]2CCCCCn2c(-c3nc4cc(C(=O)N[C@H]5CNCC[C@@H]5F)cc(Cl)c4n3C)cc3ccc1nc32` (stereo partly shown) [Example 507, 7-chloro-~{N}-[(3~ {S},4~{S})-4-fluoro-3-piperidyl]-1-methyl-2-[(2~{R},7~{R})-2-methyl-4-oxo-3,13,19-triazatetracyclo[11.5.2.0^ {5,7}.0^{16,20}]icosa-1 (19),14,16(20),17-tetraen-14-yl]benzimidazole-5-carboxamide], the IC50 amounted to 32 nM.

In the case of `COc1cc(C(=O)N[C@H]2CNC[C@@H](O)C2)cc2nc(-c3cc4ccc5nc4n3CCCCCCC(C)(C)C(=O)N[C@@H]5C)n(C)c12` [Example 59, ~{N}-[(3~{R},5~{S})-5-hydroxy-3-piperidyl]-7-methoxy-1-methyl-2-[(11~{R})-8,8,11-trimethyl-9-oxo-1,10,19-triazatricyclo[10.5.2.0^{15,18}]nonadeca-12(19),13,15(18),16-tetraen-17-yl]benzimidazole-5-carboxamide], the IC50 was 161 nM.

In the case of `Cc1cc2c(cc1C(=O)N[C@H]1CNCC[C@@H]1F)nc(-c1cc3ccc4nc3n1CCCCCCC(C)(C)C(=O)N[C@@H]4C)n2C` [Example 537, ~{N}-[(3~{S},4~ {S})-4-fluoro-3-piperidyl]-1,6-dimethyl-2-[(11~{R})-8,8,11-trimethyl-9-oxo-1,10,19-triazatricyclo [10.5.2.0^{15,18}]nonadeca-12(19),13,15(18), 16-tetraen-17-yl]benzimidazole-5-carboxamide], the half-inhibitory concentration (IC50) stood at 87 nM.

Turning to `C[C@H]1NC(=O)C(C)(C)CCCCCCn2c(-c3nc4cc(C(=O)N5CCC[C@@H](N)C5)c(F)cc4n3C3CC3)cc3ccc1nc32` [Example 169, (11~{R})-17-[5-[(3~{R})-3-aminopiperidine-1-carbonyl]-1-cyclopropyl-6-fluoro-benzimidazol-2-yl]-8,8,11-trimethyl-1,10,19-triazatricyclo[10.5.2.0^{15,18}]nonadeca-12(19),13,15(18),16-tetraen-9-one], the half-maximal inhibitory concentration (IC50) was 69 nM.

With `COc1cc(C(=O)N[C@@H]2CNC[C@@H](O)C2)cc2nc(-c3cc4ccc5nc4n3CCCCCCC(C)(C)C(=O)N[C@@H]5C)n(C)c12` [Example 529, ~{N}-[(3~{S},5~{S})-5-hydroxy-3-piperidyl]-7-methoxy-1-methyl-2-[(11~{R})-8,8,11-trimethyl-9-oxo-1,10,19-triazatricyclo[10.5.2.0^{15,18}]nonadeca-12(19),13,15(18),16-tetraen-17-yl]benzimidazole-5-carboxamide], the IC50 is 409 nM.

On to `COc1cc(C(=O)N2[C@H]3CC[C@@H]2[C@H](N)C3)cc2nc(-c3cc4ccc5nc4n3CCCCn3nccc3C(=O)N[C@@H]5C)c(C)n12` [Example 34, (2~{R})-15-[7-[(1~{R},2~{R},4~{S})-2-amino-7-azabicyclo[2.2.1]heptane-7-carbonyl]-5-methoxy-3-methyl-imidazo[1,2-a]pyridin-2-yl]-2-methyl-3,8,9,14,20-pentazatetracyclo[12.5.2.0^{5,9}.0^{17,21}] henicosa-1(20),5,7,15,17(21),18-hexaen-4-one], for which the IC50 was 54 nM.

As to `CO[C@@H]1CCN(C(=O)c2cc(F)c3c(c2)nc(-c2cc4ccc5nc4n2CC(F)(F)CCC[C@@H]2C[C@H]2C(=O)N[C@@H]5C)n3[C@@H]2C[C@H]2F)C[C@@H]1N` [Example 837, (2~{R},5~{R},7~{R})-14-[5-[(3~{S},4~{R})-3-amino-4-methoxy-piperidine-1-carbonyl]-7-fluoro-1-[(1~{R},2~{R})-2-fluorocyclopropyl]benzimidazol-2-yl]-11,11-difluoro-2-methyl-3,13,19-triazatetracyclo [11.5.2.0^{5,7}.0^{16,20}] icosa-1(19),14,16(20), 17-tetraen-4-one], the IC50 amounted to 30 nM.

`CC(C)OCCn1c(-c2cc3ccc4nc3n2CCCCCCC(C)(C)C(=O)N[C@@H]4C)nc2cc(C(=O)N[C@H]3CNCC[C@@H]3F)c(F)cc21` [Example 424, 6-fluoro-~{N}-[(3~{S},4~{S})-4-fluoro-3-piperidyl]-1-(2-isopropoxyethyl)-2-[(11~{R})-8,8,11-trimethyl-9-oxo-1,10,19-triazatricyclo[10.5.2.0^{15,18}]nonadeca-12(19),13,15(18),16-tetraen-17-yl]benzimidazole-5-carboxamide]: the IC50 worked out at 111 nM.

For the molecule `COc1cc(C(=O)N2[C@H]3CC[C@@H]2[C@H](N)C3)cc2nc(-c3cc4ccc5cc4n3CCCCCCC(C)(C)C(=O)Nc3ncccc3-5)n(C)c12` [Example 99, 18-[5-[(1~{R},2~{R},4~{S})-2-amino-7-azabicyclo[2.2.1]heptane-7-carbonyl]-7-methoxy-1-methyl-benzimidazol-2-yl]-10,10-dimethyl-6,8,17-triazatetracyclo[15.5.2.0^{2,7}.0^{20,24}] tetracosa-1(23),2(7),3,5,18,20(24),21-heptaen-9-one], the IC50 was 111 nM.

With `COc1cc(C(=O)N2CC[C@@H](OC)[C@@H](N)C2)cc2nc(-c3cc4ccc5nc4n3CCCCCCC(F)(F)C(=O)N[C@@H]5C)n(C)c12` [Example 374, (11~{R})-17-[5-[(3~{S},4~{R})-3-amino-4-methoxy-piperidine-1-carbonyl]-7-methoxy-1-methyl-benzimidazol-2-yl]-8,8-difluoro-11-methyl-1,10,19-triazatricyclo[10.5.2.0^{15,18}]nonadeca-12(19),13,15(18),16-tetraen-9-one], the IC50 was found to be 121 nM.
